Data as given in the kinase profiling compilation of Christmann-Franck et al. (2016).

Key:
Assay in all cases: KINOMEscan competition binding
Settings in all cases: compound 10.0 µM
BLK (human) = BLK (human) (UniProt P51451)
CDK14 (human) = CDK14 (human) (UniProt O94921)
CHUK (human) = CHUK (human) (UniProt O15111)
CSF1R (human) = CSF1R (human) (UniProt P07333)
CSNK1E (human) = CSNK1E (human) (UniProt P49674)
CSNK1G2 (human) = CSNK1G2 (human) (UniProt P78368)
CSNK1G3 (human) = CSNK1G3 (human) (UniProt Q9Y6M4)
DCLK2 (human) = DCLK2 (human) (UniProt Q8N568)
EPHA8 (human) = EPHA8 (human) (UniProt P29322)
ERBB4 (human) = ERBB4 (human) (UniProt Q15303)
FER (human) = FER (human) (UniProt P16591)
FGFR1 (human) = FGFR1 (human) (UniProt P11362)
GAK (human) = GAK (human) (UniProt O14976)
Sequence of GAK (human) (O14976 whole entry, looked up): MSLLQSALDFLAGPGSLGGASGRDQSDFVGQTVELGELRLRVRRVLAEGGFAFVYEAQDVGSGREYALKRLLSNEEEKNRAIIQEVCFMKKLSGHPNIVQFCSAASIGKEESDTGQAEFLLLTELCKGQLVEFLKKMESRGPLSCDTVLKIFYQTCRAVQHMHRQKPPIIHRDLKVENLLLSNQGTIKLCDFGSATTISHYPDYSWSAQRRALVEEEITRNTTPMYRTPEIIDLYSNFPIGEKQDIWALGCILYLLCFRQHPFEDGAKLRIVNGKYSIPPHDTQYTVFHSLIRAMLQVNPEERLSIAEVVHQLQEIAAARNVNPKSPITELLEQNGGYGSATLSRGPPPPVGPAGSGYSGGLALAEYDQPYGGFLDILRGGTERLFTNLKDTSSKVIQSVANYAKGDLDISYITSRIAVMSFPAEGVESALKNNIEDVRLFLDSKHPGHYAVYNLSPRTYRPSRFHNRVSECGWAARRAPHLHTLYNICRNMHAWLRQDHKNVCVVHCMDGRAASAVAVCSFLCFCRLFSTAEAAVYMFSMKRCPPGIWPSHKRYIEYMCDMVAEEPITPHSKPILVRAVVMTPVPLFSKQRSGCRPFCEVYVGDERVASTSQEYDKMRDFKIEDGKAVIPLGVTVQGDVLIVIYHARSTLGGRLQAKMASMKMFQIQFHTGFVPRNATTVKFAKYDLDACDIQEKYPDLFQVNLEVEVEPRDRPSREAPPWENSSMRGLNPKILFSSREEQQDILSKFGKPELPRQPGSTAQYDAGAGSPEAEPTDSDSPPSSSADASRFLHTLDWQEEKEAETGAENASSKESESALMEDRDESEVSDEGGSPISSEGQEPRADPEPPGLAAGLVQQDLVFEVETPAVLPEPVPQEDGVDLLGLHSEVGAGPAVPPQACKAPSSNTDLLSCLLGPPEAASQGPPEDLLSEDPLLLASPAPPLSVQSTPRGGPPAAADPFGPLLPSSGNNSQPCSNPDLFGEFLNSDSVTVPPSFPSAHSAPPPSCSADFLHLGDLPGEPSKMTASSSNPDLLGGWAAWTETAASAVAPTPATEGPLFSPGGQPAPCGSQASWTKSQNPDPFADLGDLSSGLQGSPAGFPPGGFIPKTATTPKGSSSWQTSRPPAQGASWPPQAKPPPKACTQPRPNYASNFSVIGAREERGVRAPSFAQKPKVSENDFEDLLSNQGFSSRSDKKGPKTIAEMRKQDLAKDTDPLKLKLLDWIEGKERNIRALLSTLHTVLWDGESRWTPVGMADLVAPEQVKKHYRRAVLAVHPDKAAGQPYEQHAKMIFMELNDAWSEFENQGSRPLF

IKBKB (human) = IKBKB (human) (UniProt O14920)
[1] = target: JAK1 JH1 catalytic (human) (UniProt P23458)
[2] = target: JAK3 JH1 catalytic (human) (UniProt P52333)
MAP2K2 (human) = MAP2K2 (human) (UniProt P36507)
MAP2K3 (human) = MAP2K3 (human) (UniProt P46734)
MAPK1 (human) = MAPK1 (human) (UniProt P28482)
Sequence of MAPK1 (human) (P28482 whole entry, looked up): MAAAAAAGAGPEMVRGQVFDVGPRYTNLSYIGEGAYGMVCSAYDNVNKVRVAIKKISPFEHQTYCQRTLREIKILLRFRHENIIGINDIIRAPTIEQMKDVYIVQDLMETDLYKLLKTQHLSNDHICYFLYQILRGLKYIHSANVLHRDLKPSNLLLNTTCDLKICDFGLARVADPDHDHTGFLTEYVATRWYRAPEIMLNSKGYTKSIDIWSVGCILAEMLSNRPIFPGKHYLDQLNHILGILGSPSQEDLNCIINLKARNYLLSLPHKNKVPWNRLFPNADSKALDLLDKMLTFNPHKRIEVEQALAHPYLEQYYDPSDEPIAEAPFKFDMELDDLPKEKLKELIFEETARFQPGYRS

MAPK9 (human) = MAPK9 (human) (UniProt P45984)
MAPKAPK5 (human) = MAPKAPK5 (human) (UniProt Q8IW41)
MELK (human) = MELK (human) (UniProt Q14680)
Sequence of MELK (human) (Q14680 whole entry, looked up): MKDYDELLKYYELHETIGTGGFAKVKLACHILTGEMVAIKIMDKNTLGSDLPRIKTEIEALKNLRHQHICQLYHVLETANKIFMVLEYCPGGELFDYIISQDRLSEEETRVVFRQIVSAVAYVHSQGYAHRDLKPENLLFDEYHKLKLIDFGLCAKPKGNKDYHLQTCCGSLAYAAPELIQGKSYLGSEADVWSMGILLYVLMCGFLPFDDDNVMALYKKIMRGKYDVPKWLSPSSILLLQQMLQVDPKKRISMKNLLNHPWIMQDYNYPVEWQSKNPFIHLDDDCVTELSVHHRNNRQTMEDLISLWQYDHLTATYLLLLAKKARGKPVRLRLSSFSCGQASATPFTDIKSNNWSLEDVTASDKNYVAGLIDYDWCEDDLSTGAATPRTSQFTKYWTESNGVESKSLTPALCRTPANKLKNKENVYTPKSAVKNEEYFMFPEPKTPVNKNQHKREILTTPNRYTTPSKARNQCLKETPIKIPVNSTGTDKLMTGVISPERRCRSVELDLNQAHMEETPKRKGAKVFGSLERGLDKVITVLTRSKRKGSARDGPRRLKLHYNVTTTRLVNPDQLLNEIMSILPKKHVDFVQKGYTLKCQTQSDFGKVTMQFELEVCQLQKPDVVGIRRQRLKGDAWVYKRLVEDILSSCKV

MLTK (human) = MLTK (human) (UniProt Q9NYL2)
MST1R (human) = MST1R (human) (UniProt Q04912)
NLK (human) = NLK (human) (UniProt Q9UBE8)
Sequence of NLK (human) (Q9UBE8 whole entry, looked up): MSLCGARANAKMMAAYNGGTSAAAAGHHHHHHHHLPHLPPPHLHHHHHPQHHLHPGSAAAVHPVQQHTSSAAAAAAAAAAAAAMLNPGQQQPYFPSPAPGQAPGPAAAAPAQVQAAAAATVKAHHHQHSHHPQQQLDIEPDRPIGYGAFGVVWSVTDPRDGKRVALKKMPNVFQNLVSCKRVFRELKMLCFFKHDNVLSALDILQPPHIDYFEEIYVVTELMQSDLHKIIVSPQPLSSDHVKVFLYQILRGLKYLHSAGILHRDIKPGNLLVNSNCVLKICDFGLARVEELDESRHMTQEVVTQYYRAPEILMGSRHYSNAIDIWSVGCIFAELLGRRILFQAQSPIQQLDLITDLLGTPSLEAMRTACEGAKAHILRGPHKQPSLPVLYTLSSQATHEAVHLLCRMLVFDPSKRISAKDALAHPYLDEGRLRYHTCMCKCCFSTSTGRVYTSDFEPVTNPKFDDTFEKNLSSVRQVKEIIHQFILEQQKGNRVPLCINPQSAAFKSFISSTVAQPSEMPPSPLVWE

PAK6 (human) = PAK6 (human) (UniProt Q9NQU5)
PIM3 (human) = PIM3 (human) (UniProt Q86V86)
PIP4K2B (human) = PIP4K2B (human) (UniProt P78356)
PKN1 (human) = PKN1 (human) (UniProt Q16512)
PRKD2 (human) = PRKD2 (human) (UniProt Q9BZL6)
Sequence of PRKD2 (human) (Q9BZL6 whole entry, looked up): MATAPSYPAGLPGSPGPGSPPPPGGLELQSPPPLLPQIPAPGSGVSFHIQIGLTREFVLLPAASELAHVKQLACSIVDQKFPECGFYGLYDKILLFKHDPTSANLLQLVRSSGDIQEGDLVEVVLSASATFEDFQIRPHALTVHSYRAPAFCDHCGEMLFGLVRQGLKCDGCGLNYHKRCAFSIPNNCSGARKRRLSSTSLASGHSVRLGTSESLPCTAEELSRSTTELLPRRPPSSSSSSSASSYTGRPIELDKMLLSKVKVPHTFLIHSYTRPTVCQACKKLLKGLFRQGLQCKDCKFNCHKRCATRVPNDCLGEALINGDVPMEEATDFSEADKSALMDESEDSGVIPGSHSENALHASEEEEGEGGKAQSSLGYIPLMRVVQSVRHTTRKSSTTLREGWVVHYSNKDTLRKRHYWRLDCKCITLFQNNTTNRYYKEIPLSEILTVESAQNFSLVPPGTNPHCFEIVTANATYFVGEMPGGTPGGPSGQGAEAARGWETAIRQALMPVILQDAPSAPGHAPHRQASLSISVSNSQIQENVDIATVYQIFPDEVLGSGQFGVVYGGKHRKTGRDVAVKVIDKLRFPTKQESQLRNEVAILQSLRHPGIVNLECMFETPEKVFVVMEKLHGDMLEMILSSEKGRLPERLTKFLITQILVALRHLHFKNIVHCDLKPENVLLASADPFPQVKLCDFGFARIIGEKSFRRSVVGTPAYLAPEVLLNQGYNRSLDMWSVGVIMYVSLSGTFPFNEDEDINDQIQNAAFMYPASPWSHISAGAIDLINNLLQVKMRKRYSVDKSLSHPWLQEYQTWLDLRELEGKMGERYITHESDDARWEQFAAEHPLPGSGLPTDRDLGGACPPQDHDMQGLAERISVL

PTK6 (human) = PTK6 (human) (UniProt Q13882)
RIOK1 (human) = RIOK1 (human) (UniProt Q9BRS2)
RIPK2 (human) = RIPK2 (human) (UniProt O43353)
STK11 (human) = STK11 (human) (UniProt Q15831)
STK38L (human) = STK38L (human) (UniProt Q9Y2H1)
TGFBR2 (human) = TGFBR2 (human) (UniProt P37173)

Sequence of CSF1R (human) (P07333 whole entry, looked up): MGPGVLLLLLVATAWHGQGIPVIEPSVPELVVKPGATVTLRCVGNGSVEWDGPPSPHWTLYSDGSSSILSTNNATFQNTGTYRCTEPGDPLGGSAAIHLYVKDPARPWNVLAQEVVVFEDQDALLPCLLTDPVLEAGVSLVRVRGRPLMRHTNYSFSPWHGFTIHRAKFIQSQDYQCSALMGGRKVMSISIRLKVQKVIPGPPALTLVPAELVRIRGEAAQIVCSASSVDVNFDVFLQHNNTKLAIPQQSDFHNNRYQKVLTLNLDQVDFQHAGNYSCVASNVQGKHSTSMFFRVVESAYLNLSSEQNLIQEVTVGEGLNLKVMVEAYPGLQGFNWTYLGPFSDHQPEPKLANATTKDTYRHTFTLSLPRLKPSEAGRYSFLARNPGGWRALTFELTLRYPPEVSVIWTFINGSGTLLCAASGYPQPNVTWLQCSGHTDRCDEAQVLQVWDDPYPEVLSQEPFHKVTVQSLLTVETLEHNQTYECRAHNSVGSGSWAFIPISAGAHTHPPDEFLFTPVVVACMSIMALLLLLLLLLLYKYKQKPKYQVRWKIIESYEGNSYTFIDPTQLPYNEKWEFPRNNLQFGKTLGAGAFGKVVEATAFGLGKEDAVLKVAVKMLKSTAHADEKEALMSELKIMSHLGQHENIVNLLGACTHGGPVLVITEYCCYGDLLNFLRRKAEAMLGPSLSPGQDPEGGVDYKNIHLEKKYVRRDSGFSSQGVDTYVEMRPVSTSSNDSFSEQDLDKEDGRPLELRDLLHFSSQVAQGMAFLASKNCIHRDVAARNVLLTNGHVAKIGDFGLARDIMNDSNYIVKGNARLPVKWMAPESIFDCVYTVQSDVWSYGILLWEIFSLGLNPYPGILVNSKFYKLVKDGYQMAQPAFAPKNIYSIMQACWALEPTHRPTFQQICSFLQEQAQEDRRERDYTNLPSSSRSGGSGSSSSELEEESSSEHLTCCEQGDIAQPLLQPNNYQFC

Structure (SMILES) | kinase still bound, per cent of control (BLK (human)) | kinase still bound, per cent of control (CDK14 (human)) | kinase still bound, per cent of control (CSF1R (human)) | kinase still bound, per cent of control (CSNK1E (human)) | kinase still bound, per cent of control (CSNK1G2 (human)) | kinase still bound, per cent of control (CSNK1G3 (human)) | kinase still bound, per cent of control (DCLK2 (human)) | kinase still bound, per cent of control (EPHA8 (human)) | kinase still bound, per cent of control (ERBB4 (human)) | kinase still bound, per cent of control (FER (human)) | kinase still bound, per cent of control (FGFR1 (human)) | kinase still bound, per cent of control (GAK (human)) | kinase still bound, per cent of control [2] | kinase still bound, per cent of control (MAP2K2 (human)) | kinase still bound, per cent of control (MAP2K3 (human)) | kinase still bound, per cent of control (MAPK1 (human)) | kinase still bound, per cent of control (MAPK9 (human)) | kinase still bound, per cent of control (MAPKAPK5 (human)) | kinase still bound, per cent of control (MELK (human)) | kinase still bound, per cent of control (MLTK (human)) | further results
COc1cc(C)c(Sc2cnc(NC(=O)c3ccc(CNC(C)C(C)C)cc3)s2)cc1C(=O)N1CCN(C(C)=O)CC1 (centres undefined) | 100% | 100% | 100% | 100% | 100% | 100% | 100% | 100% | 100% | 15% | 100% | 100% | 100% | 100% | 100% | 100% | 100% | 100% | 100% | 100% | kinase still bound, per cent of control (CHUK (human)): 100%; kinase still bound, per cent of control (IKBKB (human)): 100%; kinase still bound, per cent of control [1]: 100%; kinase still bound, per cent of control (MST1R (human)): 100%; kinase still bound, per cent of control (NLK (human)): 100%; kinase still bound, per cent of control (PAK6 (human)): 100%; kinase still bound, per cent of control (PIM3 (human)): 100%; kinase still bound, per cent of control (PIP4K2B (human)): 100%; kinase still bound, per cent of control (PKN1 (human)): 100%; kinase still bound, per cent of control (PRKD2 (human)): 100%; kinase still bound, per cent of control (PTK6 (human)): 100%; kinase still bound, per cent of control (RIOK1 (human)): 100%; kinase still bound, per cent of control (RIPK2 (human)): 100%; kinase still bound, per cent of control (STK11 (human)): 100%; kinase still bound, per cent of control (STK38L (human)): 7%; kinase still bound, per cent of control (TGFBR2 (human)): 100%
COc1ccc(N(C(=O)Oc2cc(C(=O)Nc3cccc(C(F)(F)F)c3)ccc2C)c2ccnc(Nc3ccc(N4CCN(C)CC4)cc3)n2)c(OC)c1 | 0.45% | 100% | 0.35% | 100% | 100% | 100% | 100% | 0% | 9.8% | 4.4% | 0.6% | 26% | 8.8% | 100% | 100% | 100% | 19% | 100% | 100% | 2.1% | kinase still bound, per cent of control (NLK (human)): 30%; kinase still bound, per cent of control (PAK6 (human)): 100%; kinase still bound, per cent of control (PIM3 (human)): 100%; kinase still bound, per cent of control (PIP4K2B (human)): 100%; kinase still bound, per cent of control (PKN1 (human)): 100%; kinase still bound, per cent of control (PRKD2 (human)): 100%; kinase still bound, per cent of control (PTK6 (human)): 4%; kinase still bound, per cent of control (RIOK1 (human)): 100%; kinase still bound, per cent of control (RIPK2 (human)): 2.3%; kinase still bound, per cent of control (STK11 (human)): 100%; kinase still bound, per cent of control (STK38L (human)): 100%; kinase still bound, per cent of control (TGFBR2 (human)): 100%
COc1cc(N2CCC(C(N)=O)CC2)ccc1Nc1nc(N)c(Cl)c(Nc2ccccc2S(=O)(=O)C(C)C)n1 | 22% | 100% | 100% | 34% | 100% | 100% | 100% | 100% | 0.55% | 0.6% | 100% | 2.5% | 100% | 100% | 23% | 26% | 100% | 100% | 100% | 100% | kinase still bound, per cent of control (CHUK (human)): 100%; kinase still bound, per cent of control (IKBKB (human)): 100%; kinase still bound, per cent of control [1]: 100%; kinase still bound, per cent of control (MST1R (human)): 100%; kinase still bound, per cent of control (NLK (human)): 100%; kinase still bound, per cent of control (PAK6 (human)): 100%; kinase still bound, per cent of control (PIM3 (human)): 100%; kinase still bound, per cent of control (PIP4K2B (human)): 100%; kinase still bound, per cent of control (PKN1 (human)): 100%; kinase still bound, per cent of control (PRKD2 (human)): 100%; kinase still bound, per cent of control (PTK6 (human)): 3%; kinase still bound, per cent of control (RIOK1 (human)): 100%; kinase still bound, per cent of control (RIPK2 (human)): 100%; kinase still bound, per cent of control (STK11 (human)): 100%; kinase still bound, per cent of control (STK38L (human)): 100%; kinase still bound, per cent of control (TGFBR2 (human)): 100%
